Patent US10214507B2, “Carbazole-containing amides, carbamates, and ureas as cryptochrome modulators” (Reset Therapeutics, Inc., priority 2014, dated 2019)

What was measured:
[1] = test system: C57/Bl6J DIO mice; assay: Increasing dosages of Compound 72 for 7 days in diet-induced obesity mouse model; type: in vivo; conditions: positive control 30 mg/kg QD PO 7 days
From the text: (§1) Male C57/Bl6J DIO mice were obtained from The Jackson Laboratory (Sacramento, Calif.). […] Animals were accustomed to these conditions for at least 2 weeks before experimentation and used at approximately 24 weeks of age.
(§2) Significance was accepted when p<0.05.
Male C57/Bl6J DIO mice were obtained from The Jackson Laboratory (Sacramento, Calif.). […] Animals were accustomed to these conditions for at least 2 weeks before experimentation and used at approximately 26 weeks of age.

[2] = test system: C57/Bl6J DIO mice; assay: 7 day dosing in diet-induced obesity (DIO) mouse model; type: in vivo
From the text: as §1, §2

[3] = test system: db/db mouse model of type II diabetes; conditions: db/db mice, positive control 30 mg/kg QD PO 7 days
Procedure: Male db/db mice homozygous for Lepr^db (6 weeks of age), were obtained from The Jackson Laboratory (Bar Harbor, Me.). Mice were group housed on a normal light/dark cycle (lights on: 07:00-19:00 h) with ad libitum access to a standard pelleted mouse diet and water. Animals were accustomed to these conditions for 2 weeks before experimentation. […] At 10:30 pm on the evening prior to endpoint measurement, mice were placed into clean cages and given free access to water, but not food for a period of 12 hours before the fasting blood glucose measurement. On the final day of the study, animals were dosed as normal, and then underwent a tail cut injury 2 hours prior to measurement of fasting blood glucose, to allow recovery from any stress the procedure might cause. Fasting blood glucose (FBG) was assessed from the animals at 10:30 am using an AlphaTRAK glucometer (Abbott Laboratories, USA). Following the FBG measurement blood was collected from each mouse, using a tail milking technique, into a capillary tube. Capillary tubes were centrifuged in a hematocrit (BD Triac 0200) and the resultant plasma transferred to an eppendorff. This sample, labelled as t=Ohr, was frozen at −80° C. to allow later measurement of insulin. At 11:30 am each animal was dosed with 0.5 g/kg of glucose, then blood glucose was measured at t=15, 30, 60, 90 and 120 minutes after glucose load. At the end of the OGTT blood was collected for a t=2 hr insulin determination as described above.
Fasting blood glucose values and glucose measurements taken during the OGTT were averaged and graphed (GraphPad Prism, GraphPad Software, La Jolla, Calif.). The area under the curve (AUC) was calculated for each individual animal. Plasma insulin levels were determined using an Ultrasensitive Insulin ELISA (ALPCO, Salem, N.H.). […] Insulin data was also represented in GraphPad Prism format. Statistical analysis was performed using one-way ANOVA followed by the appropriate post-test. Significance was accepted when p<0.05. Data are presented as mean and S.E.M.

`CN(CCOc1ccc(CC2SC(=O)NC2=O)cc1)c1ccccn1` (stereo not drawn) [Rosiglitazone, reference compound] was tested, and the fasting blood glucose [1] was 161.1 ± 8.06 mg/dL, the HOMA-IR ([2]; 30 mg/kg PO 7 days) was 24.60+/−1.42 units and the “plasma insulin at t=0” value ([2]; 30 mg/kg PO 7 days) was 2.70 ± 0.12 ng/mL. For the same molecule, the “plasma insulin at t=2 hr” value ([2]; 30 mg/kg PO 7 days) was 2.30 ± 0.06 ng/mL, the fasting blood glucose ([2]; positive control 30 mg/kg PO 7 days) was 153.9 ± 5.05 mg/dL and the HOMA-IR [3] was 50.58+/−3.52 units. The fasting blood glucose [3] was 280.4 ± 13.66 mg/dL, the “plasma insulin at t=0” value [3] was 3.05 ± 0.14 ng/mL and the “plasma insulin at t=2 hr” value [3] was 2.28 ± 0.08 ng/mL.
